Tests used:
[1] = system: Col1a1 gene expression, primary human hepatic stellate cells; assay: Col1a1 gene expression in TGFβ1-stimulated primary human hepatic stellate cells; format: cell-based; conditions: for Col1a1 Fold Expression Relative to Control, Mean: normalized to Gapdh; for Col1a1 gene expression: primary human hepatic stellate cells, three healthy donors, TGFβ1 3 ng/mL 24 h, summary in words
Method: Primary human hepatic stellate cells were obtained from Samsara Sciences. Cells were grown in Complete HSC Medium to ˜80% confluence in T75 or T150 flasks below passage 10 were seeded into sterile, collagen I coated, 96-well optical plastic microplates (ThermoScientific, 152036) and incubated overnight at 37° C., 5% CO2 in a humidified incubator in DMEM with 2% Fetal Bovine Serum and 1% Antibiotic-Antimycotic. After the overnight incubation, plates are washed and pretreated with medium±single amino acid dropout, 1×HMDB DMEM±supplemental amino acid dose for 10.5 hours. After 10.5 hour pretreatment, the same pretreatment medium supplemented with 3 ng/mL TGFβ1, was applied and incubated for 24 hours at 37° C., 5% CO2. After 24 hour stimulus, supernatant was removed, RNA was extracted and gene expression was evaluated using the ΔΔCq method within each single amino acid dropout and supplementation by normalizing to its own 1×HMDB concentration.

[2] = system: Hsp47 gene expression, primary human hepatic stellate cells; assay: Hsp47 gene expression in TGFβ1-stimulated primary human hepatic stellate cells; format: cell-based; conditions: for Hsp47 Fold Expression Relative to Control, Mean: first donor, normalized to Gapdh, single amino acid; for Hsp47 gene expression: primary human hepatic stellate cells, three healthy donors, TGFβ1 3 ng/mL 24 h, summary in words
Method: Primary human hepatic stellate cells were obtained from Samsara Sciences based on the following criteria for selecting donors: adult age (between 18 and 50 years), normal BMI (>18.5 and <25), and absence of confounding liver disease. Cells grown in Complete HSC Medium to ˜80% confluence in T75 or T150 flasks below passage 10 were seeded into sterile, collagen I coated, 96-well optical plastic microplates (ThermoScientific, 152036) at 6000 cells per well (1250 cells per cm2) and incubated overnight at 37° C., 5% CO2 in a humidified incubator in DMEM with 2% Fetal Bovine Serum and 1% Antibiotic-Antimycotic.
After the overnight incubation, plates were removed from the incubator and the medium was gently pipetted off and washed twice with 150 μL per well DPBS. The DPBS was removed and the pretreatment medium (±single amino acid dropout, 1×HMDB DMEM+1% Antibiotic-Antimycotic, 10 mM HEPES, ±supplemental amino acid dose; see experiment for medium composition) was applied to the cells at 150 μL per well. Plates were returned to the incubator for 10.5 hours.
After 10.5 hour pretreatment, the medium was removed from the cells, and the same pretreatment medium, now supplemented with 3 ng/mL TGFβ1, was applied. Each plate contained 3 ng/mL TGFβ1 in 1× human plasma amino acid (HMDB or PAA) concentration medium, 0 ng/mL in 1×HMDB, and 3 ng/mL TGFβ1+20 μM Silybin in 1×HMDB to serve as controls. Plates were then incubated for 24 hours at 37° C., 5% CO2.
After 24 hour stimulus, supernatant was removed and frozen at −80° C. in two separate aliquots. The cells were then washed with 125 μL per well Buffer FCW (FastLane Cell Multiplex NR Kit, Qiagen, 216713). The wash buffer was immediately removed and 50 μL of Cell Processing Mix (containing genomic DNA Wipeout buffer) was applied to lyse cells, incubating for 10 minutes at room temperature. RNA lysate was then transferred to 96-well qPCR plates, sealed, and gDNA was digested on thermal cycler at 75° C. for 5 minutes. RNA lysate was frozen at −80° C.
Each 20 μL one-step RT-qPCR reaction contained 4 μL of RNA lysate. Gene expression of Hsp47, and Gapdh were multiplexed using the HEX, and FAM fluorescent channels, respectively, with commercially available primer-probe mixes (the Human Hsp47 Primer-Probe Set, HEX; and the Human Gapdh Primer-Probe Set, FAM from IDT). Gene expression was evaluated using the ΔΔCq method within each single amino acid dropout and supplementation by normalizing to its own 1×HMDB concentration.

[3] = system: LX-2 hepatic stellate cells; assay: TGFβ1-induced fibrogenic gene expression (Col1a1, Acta2, Timp2) in LX-2 hepatic stellate cells, qPCR; format: cell-based, human; conditions: LX-2 cells with TGFβ1
Description: Hepatic stellate cells in a healthy liver are in the space of Disse, between the hepatocytes and liver sinusoidal endothelial cells. In response to liver injury hepatic stellate cells become activated, proliferative and contractile, increase production of aSMA, secretion of type I and III collagens and specific MMP and TIMP proteins. LX-2 cells were selected as a model of activated hepatic stellate cells and used to test whether specific amino acid compositions would reduce fibrogenic gene expression induced with TGFβ1.
LX-2 hepatic stellate cells (Millipore) were seeded on day 0 at 1.67E4 cells per well in collagen I coated 96-well microplates (ThermoFisher) in Dulbecco's Modified Eagle Medium (DMEM, Corning) supplemented with 2% heat inactivated fetal bovine serum (HI-FBS, HyClone) and 0.2% Primocin (InVivoGen) and incubated overnight at 37° C., 5% CO2. […] Combinations containing N-acetylcysteine were dosed with 10 mM. Cells were pretreated for 6 hours at 37° C., 5% CO2. After pretreatment, TGFβ1 (R&D Systems) or vehicle was spiked into each well for a final concentration of 5 ng/mL and cells were incubated under this stimulus for a further 12 hours at 37° C., 5% CO2.
After 12 hour incubation, RNA extraction and quantitative PCR was conducted on lysates to determine collagen-1a1 expression normalized to β-actin housekeeping expression using the ΔΔCt method using TaqMan primer probes (Integrated DNA Technologies: Col1A1, Hs.PT.58.15517795; Actb, Hs.PT.39a.22214847; Acta2, Hs.PT.56a.24853961; Timp2, Hs.PT.58.14780594).

[4] = individual amino acid at 1X HMDB derived concentration
[5] = individual amino acid at 50X HMDB derived concentration

## CC[C@H](C)[C@H](N)C(=O)O [ILE, isoleucine]
[1]; Table 31-4, second donor, 66 μM (baseline, reference)
  Col1a1 Fold Expression Relative to Control, Mean: 1.02 fold
[1]; Table 31-4, second donor, 1328 μM
  Col1a1 Fold Expression Relative to Control, Mean: 0.94 fold
[1]; Table 31-4, second donor, 3320 μM
  Col1a1 Fold Expression Relative to Control, Mean: 0.94 fold
[1]; Table 31-4, second donor, 6639 μM
  Col1a1 Fold Expression Relative to Control, Mean: 1.03 fold
[1]; first donor, 66 μM (baseline, reference)
  Col1a1 Fold Expression Relative to Control, Mean: 1.01 fold
[1]; first donor, 1328 μM
  Col1a1 Fold Expression Relative to Control, Mean: 1.05 fold
[1]; first donor, 3320 μM
  Col1a1 Fold Expression Relative to Control, Mean: 1.10 fold
[1]; first donor, 6639 μM
  Col1a1 Fold Expression Relative to Control, Mean: 1.11 fold
[1]
  Col1a1 gene expression: did not significantly change
[1]; second donor, 66 μM (baseline, reference)
  Col1a1 Fold Expression Relative to Control, Mean: 1.00 fold
[1]; second donor, 1328 μM
  Col1a1 Fold Expression Relative to Control, Mean: 0.97 fold
[1]; second donor, 3320 μM
  Col1a1 Fold Expression Relative to Control, Mean: 0.99 fold
[1]; second donor, 6639 μM
  Col1a1 Fold Expression Relative to Control, Mean: 1.03 fold
[2]; Table 38, second donor, 66 μM (baseline 1×HMDB concentration)
  Hsp47 Fold Expression Relative to Control, normalized to Gapdh (Mean): 1.00 fold
[2]; Table 38, second donor, 1328 μM
  Hsp47 Fold Expression Relative to Control, normalized to Gapdh (Mean): 0.90 fold
[2]; Table 38, second donor, 3320 μM
  Hsp47 Fold Expression Relative to Control, normalized to Gapdh (Mean): 0.92 fold
[2]; Table 38, second donor, 6639 μM
  Hsp47 Fold Expression Relative to Control, normalized to Gapdh (Mean): 0.94 fold
[2]; Table 40, second donor (so in the source), 66 μM (baseline 1×HMDB concentration)
  Hsp47 Fold Expression Relative to Control, normalized to Gapdh (Mean): 1.00 fold
[2]; Table 40, second donor (so in the source), 1328 μM
  Hsp47 Fold Expression Relative to Control, normalized to Gapdh (Mean): 1.00 fold
[2]; Table 40, second donor (so in the source), 3320 μM
  Hsp47 Fold Expression Relative to Control, normalized to Gapdh (Mean): 0.98 fold
[2]; Table 40, second donor (so in the source), 6639 μM
  Hsp47 Fold Expression Relative to Control, normalized to Gapdh (Mean): 1.06 fold
[2]; 66 μM (1X reference)
  Hsp47 Fold Expression Relative to Control, Mean: 1.00 fold
[2]; 1328 μM
  Hsp47 Fold Expression Relative to Control, Mean: 1.07 fold
[2]; 3320 μM
  Hsp47 Fold Expression Relative to Control, Mean: 1.22 fold
[2]; 6639 μM
  Hsp47 Fold Expression Relative to Control, Mean: 0.99 fold
[2]
  Hsp47 gene expression: did not significantly change
[3]; [4]
  Col1a1 gene expression, mean: 2.020
[3]; [5]
  Col1a1 gene expression, mean: 2.028

## CC(C)[C@H](N)C(=O)O [VAL, valine]
[1]; Table 31-4, second donor, 234 μM (baseline, reference)
  Col1a1 Fold Expression Relative to Control, Mean: 1.01 fold
[1]; Table 31-4, second donor, 4684 μM
  Col1a1 Fold Expression Relative to Control, Mean: 1.22 fold
[1]; Table 31-4, second donor, 11710 μM
  Col1a1 Fold Expression Relative to Control, Mean: 1.27 fold
[1]; Table 31-4, second donor, 23420 μM
  Col1a1 Fold Expression Relative to Control, Mean: 1.13 fold
[1]; first donor, 234 μM (baseline, reference)
  Col1a1 Fold Expression Relative to Control, Mean: 1.00 fold
[1]; first donor, 4684 μM
  Col1a1 Fold Expression Relative to Control, Mean: 1.05 fold
[1]; first donor, 11710 μM
  Col1a1 Fold Expression Relative to Control, Mean: 1.09 fold
[1]; first donor, 23420 μM
  Col1a1 Fold Expression Relative to Control, Mean: 1.00 fold
[1]
  Col1a1 gene expression: did not significantly change
[1]; second donor, 234 μM (baseline, reference)
  Col1a1 Fold Expression Relative to Control, Mean: 1.00 fold
[1]; second donor, 4684 μM
  Col1a1 Fold Expression Relative to Control, Mean: 1.05 fold
[1]; second donor, 11710 μM
  Col1a1 Fold Expression Relative to Control, Mean: 0.98 fold
[1]; second donor, 23420 μM
  Col1a1 Fold Expression Relative to Control, Mean: 1.05 fold
[2]; Table 38, second donor, 234 μM (baseline 1×HMDB concentration)
  Hsp47 Fold Expression Relative to Control, normalized to Gapdh (Mean): 1.00 fold
[2]; Table 38, second donor, 4684 μM
  Hsp47 Fold Expression Relative to Control, normalized to Gapdh (Mean): 1.02 fold
[2]; Table 38, second donor, 11710 μM
  Hsp47 Fold Expression Relative to Control, normalized to Gapdh (Mean): 0.99 fold
[2]; Table 38, second donor, 23420 μM
  Hsp47 Fold Expression Relative to Control, normalized to Gapdh (Mean): 0.89 fold
[2]; Table 40, second donor (so in the source), 234 μM (baseline 1×HMDB concentration)
  Hsp47 Fold Expression Relative to Control, normalized to Gapdh (Mean): 1.00 fold
[2]; Table 40, second donor (so in the source), 4684 μM
  Hsp47 Fold Expression Relative to Control, normalized to Gapdh (Mean): 0.97 fold
[2]; Table 40, second donor (so in the source), 11710 μM
  Hsp47 Fold Expression Relative to Control, normalized to Gapdh (Mean): 0.95 fold
[2]; Table 40, second donor (so in the source), 23420 μM
  Hsp47 Fold Expression Relative to Control, normalized to Gapdh (Mean): 0.95 fold
[2]; 234 μM (1X reference)
  Hsp47 Fold Expression Relative to Control, Mean: 1.00 fold
[2]; 4684 μM
  Hsp47 Fold Expression Relative to Control, Mean: 1.05 fold
[2]; 11710 μM
  Hsp47 Fold Expression Relative to Control, Mean: 1.05 fold
[2]; 23420 μM
  Hsp47 Fold Expression Relative to Control, Mean: 1.00 fold
[2]
  Hsp47 gene expression: did not significantly change
[3]; [4]
  Col1a1 gene expression, mean: 2.093
[3]; [5]
  Col1a1 gene expression, mean: 2.203

From US20210275480A1, “COMPOSITIONS AND METHODS FOR THE REDUCTION OR TREATMENT OF FIBROSIS” (AXCELLA HEALTH INC., priority 2018, published 2021)
